Measurements as given in publication PMC3042617, “Identification of Two Novel HLA-A*0201-Restricted CTL Epitopes Derived from MAGE-A4” (Clinical and Developmental Immunology, 2011).

Assays:
[1] = system: peptide/HLA-A*0201 complex; assay: Peptide/HLA-A*0201 complex stability on T2 cells; type: binding, human; conditions: for % MFI increase at indicated time point (h): 0 / DC50 (half-time of the peptide/HLA-A*0201 complex): T2 cells, 37°C; for % MFI increase at indicated time point (h): 0: 100 μM peptide overnight, 100 ng/mL human β2m, Brefeldin A 10 μg/mL 1 h, then 0 h at 37°C, anti-HLA-A2 mAb staining; for DC50 (half-time of the peptide/HLA-A*0201 complex): 100 μM peptide, time points 0-8 h; for % MFI increase at indicated time point (h): 2 / % MFI increase at indicated time point (h): 4 / % MFI increase at indicated time point (h): 6 / % MFI increase at indicated time point (h): 8: as at 0 h; for % MFI increase at indicated time point (h): 2: then 2 h at 37°C after Brefeldin A; for % MFI increase at indicated time point (h): 4: then 4 h at 37°C after Brefeldin A; for % MFI increase at indicated time point (h): 6: then 6 h at 37°C after Brefeldin A; for % MFI increase at indicated time point (h): 8: then 8 h at 37°C after Brefeldin A
Procedure: As previously described, T2 cells (10^6/mL) were incubated overnight with 100 μM of each peptide in serum-free RPMI 1640 medium supplemented with 100 ng/mL human β2m at 37°C. Then, they were washed to remove free peptides and incubated with 10 μg/mL of Brefeldin A (Sigma-Aldrich, USA) for 1 h to block newly synthesized HLA-A*0201 molecules to be expressed on cell surface, washed and incubated at 37°C for 0, 2, 4, 6, or 8 h. Subsequently, the cells were stained with the anti-HLA-A2 mAb to evaluate the expression of HLA-A*0201 molecules.

HLA-A*0201 molecule = HLA-A*0201 molecule (Homo sapiens, UniProt P04439, D140Y/D185E/D98H/E176V/E277Q/G131W/G231S/I119V/I121R/I166T/I218V/L300P/L318F/N151K/N90K/P208A/P217A/Q86G/Q94H/R138H/R169H/T345S); assay: T2-cell-peptide binding test (affinity of peptide for HLA-A*0201); conditions: various peptide concentrations, 3 μg/mL human β2m, serum-free RPMI 1640, 37°C, 16 h, flow cytometry, three replicates, repeated three times
Procedure: The affinity of peptides for HLA-A*0201 was measured as described previously. Briefly, T2 cells were incubated with various concentrations of each peptide and 3 μg/mL human β2m in serum-free RPMI 1640 medium at 37°C for 16 h. Then, the cells were washed and stained with antiHLA-A2 mAb and FITC-labeled goat anti-mouse IgG. The expression of HLA-A*0201 on T2 cells was determined with FACS Calibur flow cytometer (Becton Dickinson, USA). For each peptide concentration, the percent mean fluorescence index (% MFI) increase of HLA-A*0201 molecule was calculated as follows: % MFI increase = [(MFI with the given peptide − MFI without peptide)/(MFI without peptide)] × 100.
Figure 1 Binding affinity of peptides for HLA-A*0201 molecule. T2 cells were incubated with indicated concentrations of the peptides in serum-free RPMI 1640 medium supplied with 3 μg/mL human β2m at 37°C for 16 h. And then the cells were stained with anti-HLA-A2 mAb and FITC-labeled goat antimouse IgG. The expression of HLA-A*0201 on T2 cells was determined with FACS Calibur flow cytometer. The peptides HBcAg18–27 and OVA257–264 were taken as positive control and negative control, respectively. Each sample was measured in three replicates and the experiment was repeated three times.

LB1751-MEL cells [2] = assay: Cytotoxicity (LDH release) of peptide-stimulated human PBMCs against LB1751-MEL; type: cell-based; conditions: PBMCs of healthy HLA-A*0201 donors, E/T 50/1, 25/1, 12.5/1, 4 h
Procedure: (§1) PBMCs were isolated from the buffy coat of heparinized whole blood samples of healthy HLA-A*0201 donors by density gradient centrifugation on the Ficoll-Paque PREMIUM (GE Healthcare Bio-Sciences AB, Uppsala, Sweden). The effector lymphocytes and dendritic cells (DCs) were prepared by our published method. All donors signed written, informed consent to provide whole blood samples used in the study. Approval of the study was obtained from the relevant ethical committees and was in accordance with the Declaration of Helsinki.
(§2) Three to five days after the final stimulation, the cytotoxic activity of the effector cells was evaluated by a lactate dehydrogenase release assay using Cytotox 96 Non-Radioactive Cytotoxicity Assay kit (Promega, USA). In brief, 1×10^4 target cells (LB1751-MEL, MCF-7 or MCF-7A4) in 50 μL RPMI 1640 containing 5% fetal calf serum (FCS) was placed in the wells of a 96-well round-bottom plate, then 50 μL of various concentrations of effector cells was added at different effector to target (E/T) ratios (50/1, 25/1, and 12.5/1). After 4 h incubation at 37°C, the supernatant was collected to assay lactate dehydrogenase (LDH) release by OD490 measurement according to the manufacturer's instructions. Experiments were performed in triplicates and the percentage of lysis was calculated as % Lysis = [(experimental LDH release − effector spontaneous LDH release − target spontaneous LDH release)/(target maximum LDH release − target spontaneous LDH release)] × 100.
Figure 2 Induction of peptide-specific CTLs from human PBMCs. PBMCs from healthy HLA-A*0201 donors were first stimulated with peptide-pulsed autologous DCs and then restimulated with peptide-pulsed autologous PBMCs. After three to five days of the final stimulation, the stimulated PBMCs were used as effector cells to detect their cytotoxic activity against tumor cells at the indicated E/T ratios in a cytotoxicity assay. The irrelevant peptide HBcAg18–27 was taken as negative control. Each sample was measured in three replicates and the experiment was repeated three times. […] (c) P1- and P3-stimulated PBMCs mediated lysis of MCF-7A4 cells. (d) P1- and P3-stimulated PBMCs mediated lysis of MCF-7 cells.

MCF-7A4 cells = assay: Cytotoxicity (LDH release) of peptide-stimulated human PBMCs against MCF-7A4; type: cell-based; conditions: 4 h
Text: To establish a cell line expressing both HLA-A*0201 and MAGE-A4, MCF-7 cells were transfected with plasmid pCI-MAGEA4 using Lipofectamine 2000 (Invitrogen, USA) and then selected with G418. The expression of MAGE-A4 in the established cell line (designated MCF-7A4) was confirmed by reverse transcription-PCR and western blotting.
as §1, with “Approval of the study was obtained from the relevant ethical committees and was in accordance with the Declaration of Helsinki.” left out
Three to five days after the final stimulation, the cytotoxic activity of the effector cells was evaluated by a lactate dehydrogenase release assay using Cytotox 96 Non-Radioactive Cytotoxicity Assay kit (Promega, USA). […] Experiments were performed in triplicates and the percentage of lysis was calculated as % Lysis = [(experimental LDH release − effector spontaneous LDH release − target spontaneous LDH release)/(target maximum LDH release − target spontaneous LDH release)] × 100.
Figure 2 Induction of peptide-specific CTLs from human PBMCs. […] Each sample was measured in three replicates and the experiment was repeated three times. […]

LB1751-MEL cells [3] = assay: In vivo induction of peptide-specific CTLs in HLA-A*0201/K^b transgenic mice; conditions: 100 μg peptide in IFA once, splenocytes after 10 days, restimulated in vitro 5 days with peptide and rmIL-2; LDH release
Procedure: as §2
HLA-A*0201/K^b mice were immunized with 100 μg of various peptides prepared in IFA or IFA emulsion without peptide as a control. After 10 days, mice were sacrificed and splenocytes were cultured for 5 days with 10 units/mL recombinant murine interleukin-2 (rmIL-2) and […]. And then, effector cells were counted and tested for cytotoxic activity in a cytotoxicity assay.
Figure 3 In vivo induction of peptide-specific CTLs. […]

DC50 (half-time of the peptide/HLA-A*0201 complex) [1] | Binding affinity for HLA-A*0201 molecule (increase of HLA-A*0201 expression on T2 cells) (HLA-A*0201 molecule) | Substance | % MFI increase at indicated time point (h): 0 [1] | % MFI increase at indicated time point (h): 2 [1] | % MFI increase at indicated time point (h): 4 [1] | % MFI increase at indicated time point (h): 6 [1] | % MFI increase at indicated time point (h): 8 [1] | Lysis of LB1751-MEL target cells by peptide-stimulated PBMCs (LB1751-MEL cells [2]) | Lysis of MCF-7A4 cells (HLA-A*0201 and MAGE-A4 expressing) by peptide-primed effector cells (MCF-7A4 cells) | Lysis of LB1751-MEL target cells by splenocytes of peptide-inoculated mice (LB1751-MEL cells [3])
2 h | lower affinity | ALLEEEEGV [Peptide P2] | 170.07% | 84.13% | 57.09% | 42.34% | 31.19% | could not lyse |  | 
2 h | lowest affinity | ALPTTISFT [Peptide P4] | 98.80% | 48.73% | 30.79% | 21.01% | 18.52% | could not lyse |  | 
8 h | highest affinity | FLWGPRALA [Peptide P3] | 285.66% | 230.85% | 192.71% | 170.05% | 150.56% | could significantly lyse | could also lyse | could lyse
4 to 6 h | lowest affinity | KVLEHVVRV [Peptide P1] | 126.16% | 95.74% | 74.98% | 60.29% | 49.07% | could significantly lyse | could also lyse | could lyse
 | did not increase | OVA257–264: control peptide, negative control in HLA-A*0201 binding test (ESIINFEK; UniProt P01012 257-264, looked up, fragment) [reference compound] |  |  |  |  |  |  |  | 
